#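 Following 48 hours of exposure in 96-well plates, responses at five concentrations were used to interpolate endpoints linearly. GI50 is the concentration that inhibits growth by half.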 Activity calls are given as the source filed them. Rule as the data show it: active = GI50 up to about 1.1 µM and inactive = higher.
# How the values were obtained:
# Assay in all cases: growth of human tumour cells (NCI), 48 h
# [1] = tested on: UO-31
# [2] = tested on: MCF7
# [3] = tested on: KM12
# [4] = tested on: SN12C
# [5] = tested on: HCT-116
# [6] = tested on: MOLT-4
# [7] = tested on: T47D
# [8] = tested on: HOP-92
# [9] = tested on: COLO 205
# [10] = tested on: MDA-MB-435
# [11] = tested on: EKVX
# [12] = tested on: CAKI-1
# [13] = tested on: MDA-MB-231
# [14] = tested on: ACHN
# [15] = tested on: SW-620
# [16] = tested on: OVCAR-3
# [17] = tested on: OVCAR-8
# [18] = tested on: MDA-N
# [19] = tested on: NCI-H226
# [20] = tested on: SF-268
# [21] = tested on: UACC-62
# [22] = tested on: SK-MEL-5
# [23] = tested on: HOP-62
# [24] = tested on: SK-OV-3
# [25] = tested on: M14
# [26] = tested on: SNB-19
# [27] = tested on: BT-549
# [28] = tested on: HCT-15
# [29] = tested on: SNB-75
# [30] = tested on: SK-MEL-28
# [31] = tested on: UACC-257
# [32] = tested on: Hs-578T
# [33] = tested on: HT-29
# [34] = tested on: OVCAR-5
# [35] = tested on: 786-0
# [36] = tested on: NCI-H522
# [37] = tested on: NCI-H460
# [38] = tested on: NCI-H23
# [39] = tested on: U-251
# [40] = tested on: SK-MEL-2
# [41] = tested on: NCI/ADR-RES
# [42] = tested on: HCC 2998
# [43] = tested on: LOX IMVI
# [44] = tested on: DU-145
# [45] = tested on: RPMI-8226
# [46] = tested on: HL-60
# [47] = tested on: PC-3
# [48] = tested on: OVCAR-4
# [49] = tested on: SF-295
# [50] = tested on: SF-539
# [51] = tested on: IGROV-1
# [52] = tested on: A549
# [53] = tested on: Malme-3M
# [54] = tested on: CCRF-CEM
# [55] = tested on: TK-10
# [56] = tested on: SR
# [57] = tested on: RXF 393
# [58] = tested on: K562
# [59] = tested on: A498
compound,measurement,setting,value
CSC1(Cc2ccccn2)C(=O)Nc2cccc([N+](=O)[O-])c21 (centres undefined),GI50,[1],> 100 µM (inactive)
same,GI50,[2],76 µM (inactive)
same,GI50,[3],> 100 µM (inactive)
same,GI50,[4],> 100 µM (inactive)
same,GI50,[5],79.1 µM (inactive)
same,GI50,[6],33.3 µM (inactive)
same,GI50,[7],52.1 µM (inactive)
same,GI50,[8],> 100 µM (inactive)
same,GI50,[9],> 100 µM (inactive)
same,GI50,[10],> 100 µM (inactive)
same,GI50,[11],> 100 µM (inactive)
same,GI50,[12],> 100 µM (inactive)
same,GI50,[13],> 100 µM (inactive)
same,GI50,[14],> 100 µM (inactive)
same,GI50,[15],56.4 µM (inactive)
same,GI50,[16],> 100 µM (inactive)
same,GI50,[17],> 100 µM (inactive)
same,GI50,[18],> 100 µM (inactive)
same,GI50,[19],> 100 µM (inactive)
same,GI50,[20],> 100 µM (inactive)
same,GI50,[21],> 100 µM (inactive)
same,GI50,[22],> 100 µM (inactive)
same,GI50,[23],> 100 µM (inactive)
same,GI50,[24],> 100 µM (inactive)
same,GI50,[25],> 100 µM (inactive)
same,GI50,[26],> 100 µM (inactive)
same,GI50,[27],> 100 µM (inactive)
same,GI50,[28],> 100 µM
same,GI50,[29],> 100 µM (inactive)
same,GI50,[30],55.5 µM (inactive)
same,GI50,[31],> 100 µM (inactive)
same,GI50,[32],> 100 µM (inactive)
same,GI50,[33],> 100 µM (inactive)
same,GI50,[34],> 100 µM (inactive)
same,GI50,[35],> 100 µM (inactive)
same,GI50,[36],61.1 µM (inactive)
same,GI50,[37],> 100 µM (inactive)
same,GI50,[38],> 100 µM (inactive)
same,GI50,[39],> 100 µM (inactive)
same,GI50,[40],> 100 µM (inactive)
same,GI50,[41],> 100 µM (inactive)
same,GI50,[42],> 100 µM (inactive)
same,GI50,[43],53.5 µM (inactive)
same,GI50,[44],> 100 µM (inactive)
same,GI50,[45],78 µM (inactive)
same,GI50,[46],42.3 µM (inactive)
same,GI50,[47],> 100 µM (inactive)
same,GI50,[48],> 100 µM (inactive)
same,GI50,[49],> 100 µM (inactive)
same,GI50,[50],> 100 µM (inactive)
same,GI50,[51],> 100 µM (inactive)
same,GI50,[52],> 100 µM (inactive)
same,GI50,[53],47.9 µM (inactive)
same,GI50,[54],48 µM (inactive)
same,GI50,[55],> 100 µM (inactive)
same,GI50,[56],> 100 µM (inactive)
O=C(CSc1nc2ccc(Cl)cc2c(=O)n1-c1ccccc1)N/N=C1\C(=O)Nc2ccc(F)cc21,GI50,[1],0.189 µM (active)
same,GI50,[2],2.1 µM (inactive)
same,GI50,[3],3.13 µM (inactive)
same,GI50,[4],2.08 µM (inactive)
same,GI50,[5],2.02 µM (inactive)
same,GI50,[6],2.88 µM (inactive)
same,GI50,[57],1.76 µM (inactive)
same,GI50,[7],2.07 µM (inactive)
same,GI50,[8],2.49 µM (inactive)
same,GI50,[9],2.21 µM (inactive)
same,GI50,[10],2.43 µM (inactive)
same,GI50,[11],3 µM (inactive)
same,GI50,[12],4.81 µM (inactive)
same,GI50,[13],2.76 µM (inactive)
same,GI50,[14],1.98 µM (inactive)
same,GI50,[15],2.33 µM (inactive)
same,GI50,[16],1.89 µM (inactive)
same,GI50,[17],1.69 µM (inactive)
same,GI50,[18],2.67 µM (inactive)
same,GI50,[19],3.5 µM (inactive)
same,GI50,[20],2.82 µM (inactive)
same,GI50,[21],2.39 µM (inactive)
same,GI50,[22],3.13 µM (inactive)
same,GI50,[23],1.75 µM (inactive)
same,GI50,[24],8.34 µM (inactive)
same,GI50,[25],3.21 µM (inactive)
same,GI50,[26],2.97 µM (inactive)
same,GI50,[58],3.72 µM (inactive)
same,GI50,[27],1.85 µM (inactive)
same,GI50,[28],1.96 µM
same,GI50,[29],2.24 µM (inactive)
same,GI50,[30],3.05 µM (inactive)
same,GI50,[31],3.56 µM (inactive)
same,GI50,[32],4.25 µM (inactive)
same,GI50,[59],2.38 µM (inactive)
same,GI50,[33],2.2 µM (inactive)
same,GI50,[34],2.9 µM (inactive)
same,GI50,[35],2.1 µM (inactive)
same,GI50,[36],1.81 µM (inactive)
same,GI50,[37],3.7 µM (inactive)
same,GI50,[38],2.92 µM (inactive)
same,GI50,[39],1.74 µM (inactive)
same,GI50,[40],1.95 µM (inactive)
same,GI50,[41],2.65 µM (inactive)
same,GI50,[42],2.69 µM (inactive)
same,GI50,[43],1.78 µM (inactive)
same,GI50,[44],2.16 µM (inactive)
same,GI50,[45],1.77 µM (inactive)
same,GI50,[46],3.66 µM (inactive)
same,GI50,[47],2.39 µM (inactive)
same,GI50,[48],2.16 µM (inactive)
same,GI50,[49],4.2 µM (inactive)
same,GI50,[50],2.86 µM (inactive)
same,GI50,[51],2.17 µM (inactive)
same,GI50,[52],2.37 µM (inactive)
same,GI50,[53],3.57 µM (inactive)
same,GI50,[54],2.7 µM (inactive)
same,GI50,[55],4.21 µM (inactive)
